Several values for one entry are separate records, joined by “and”; a condition that tells them apart may be missing. Equal values may be shown once. Read-outs that look alike come from different tables or passages of the source.
Assay: Pharmacokinetics and oral bioavailability of D8.3.p1 and D10.1 in Balb/C female mice (PO, SQ, IV)
Format: in vivo
Protocol: In vivo bioavailability assays were conducted in mice and rats. D8.3.p1 and D10.1 were studied in female Balb/C mice by van Voorhis group at University of Washington. D11.2 was evaluated in Sprague Dawley (SD) rats by Robert Griffin’s group at Takeda Pharmaceuticals. D11.3 was studied in the male swiss albino mice by the contract research organization, GVK Biosciences Pvt. Ltd., Hyderabad, India. All animals used in these studies were handled in strict accordance with practices made to minimize suffering. All animal experiments conducted at the University of Washington, USA, and Takeda Pharmaceuticals, USA were approved by the Institutional Animal Care and Use Committee. Animal studies at GVK Biosciences were reviewed and approved by the Institutional Animal Ethics Committee of GVK Biosciences. We selected four designed macrocycles with diverse structures and in vitro rates of permeability for in vivo oral bioavailability studies in the rodent models. Due to the intensive resource requirements for such studies, these studies were conducted by three different research groups. D8.3.p1 and D10.1 were studied in female Balb/C mice by van Voorhis group at University of Washington. D11.2 was evaluated in Sprague Dawley (SD) rats by Robert Griffin’s group at Takeda Pharmaceuticals. D11.3 was studied in the male swiss albino mice by the contract research organization, GVK Biosciences Pvt. Ltd., Hyderabad, India. […] Blood samples were collected at multiple time points and plasma was separated from whole blood using centrifugation and stored at -80°C. […] Samples were mixed, centrifuged, and supernatant harvested for LC-MS analysis. For RP-HPLC analysis, peptides were evaluated using Agilent ZORBAX Eclipse Plus C18 1.8 μm, 2.1 mm x 50 mm and Waters Xevo TQ-S micro Triple Quadrupole/ACQUITY UPLC H-Class. […] Pharmacokinetic parameters were modeled using the Phoenix WinNonlin software package. […]

[1] = D10.1 PO 12.2 mg/kg, individual mice M1, M2, M3, 12.2 mg/kg
[2] = D10.1 PO 12.2 mg/kg, mean n=3, 12.2 mg/kg
[3] = D10.1 SQ 12.2 mg/kg, individual mice M1, M2, M3
[4] = D10.1 SQ 12.2 mg/kg, individual mice M2, M3 (M1 NA)

Structure (SMILES): CC[C@H](C)[C@@H]1NC(=O)[C@@H](CC(C)C)NC(=O)[C@H](CC(C)C)N(C)C(=O)[C@H](Cc2ccccc2)NC(=O)CN(C)C(=O)[C@@H]2CCCN2C(=O)[C@H](C(C)C)NC(=O)[C@H](Cc2ccccc2)N(C)C(=O)[C@H]2CCCN2C(=O)[C@H](CC(C)C)NC1=O [Design D10.1, DLEU ILE LEU DPRO *PHE VAL PRO *GLY PHE *LEU]
- Plasma level (D10.1 PO 12.2 mg/kg, 15 min, individual mice M1, M2, M3, 12.2 mg/kg): 2260 nM
- Plasma level (D10.1 PO 12.2 mg/kg, 15 min, mean n=3, 12.2 mg/kg): 2580 nM
- Plasma level (D10.1 PO 12.2 mg/kg, 30 min, individual mice M1, M2, M3, 12.2 mg/kg): 2490 nM and 3640 nM and 2640 nM
- Plasma level (D10.1 PO 12.2 mg/kg, 30 min, mean n=3, 12.2 mg/kg): 2920 nM
- Plasma level (D10.1 PO 12.2 mg/kg, 60 min, individual mice M1, M2, M3, 12.2 mg/kg): 2140 nM and 1640 nM and 1570 nM
- Plasma level (D10.1 PO 12.2 mg/kg, 60 min, mean n=3, 12.2 mg/kg): 1780 nM
- Plasma level (D10.1 PO 12.2 mg/kg, 120 min, mean n=3, 12.2 mg/kg): 720 nM
- Plasma level (D10.1 PO 12.2 mg/kg, 240 min, mean n=3, 12.2 mg/kg): 160 nM
- Plasma level (D10.1 PO 12.2 mg/kg, 360 min, individual mice M1, M2, M3, 12.2 mg/kg): 0 nM and 100 nM
- Plasma level (D10.1 PO 12.2 mg/kg, 360 min, mean n=3, 12.2 mg/kg): 70 nM
- Plasma level (D10.1 PO 12.2 mg/kg, 1440 min, individual mice M1, M2, M3): 0 nM
- Plasma level (D10.1 PO 12.2 mg/kg, 1440 min, mean n=3): 0 nM
- Tmax (D10.1 PO 12.2 mg/kg, individual mice M1, M2, M3): 0.5 h
- AUC0-∞ [1]: 226.62 µmol·min/L and 337.03 µmol·min/L and 276.18 µmol·min/L
- AUC(0-t) [1]: 216.96 µmol·min/L and 327.78 µmol·min/L and 266.45 µmol·min/L
- Cl/F [1]: 0.000944 L/min and 0.000635 L/min and 0.000775 L/min
- T1/2 [1]: 1.051 h and 1.132 h
- Cmax (D10.1 PO 12.2 mg/kg, individual mice M1, M2, M3, 12.2 mg/kg, read-out: Cmax): 3640 nM and 2640 nM
- AUC0-∞ [2]: 279.94 µmol·min/L
- AUC(0-t) [2]: 270.4 µmol·min/L
- Plasma level (D10.1 SQ 12.2 mg/kg, 15 min, mean n=3): 2530 nM
- Plasma level (D10.1 SQ 12.2 mg/kg, 30 min, individual mice M1, M2, M3): 1810 nM and 3690 nM and 5150 nM
- Plasma level (D10.1 SQ 12.2 mg/kg, 30 min, mean n=3): 3550 nM
- Plasma level (D10.1 SQ 12.2 mg/kg, 60 min, individual mice M1, M2, M3): 1870 nM and 4880 nM and 5030 nM
- Plasma level (D10.1 SQ 12.2 mg/kg, 60 min, mean n=3): 3930 nM
- Plasma level (D10.1 SQ 12.2 mg/kg, 360 min, mean): 2290 nM
- Plasma level (D10.1 SQ 12.2 mg/kg, 1440 min, individual mice M1, M2, M3): 0 nM
- Plasma level (D10.1 SQ 12.2 mg/kg, 1440 min, mean n=3): 10 nM
- AUC(0-t) [3]: 730.93 µmol·min/L and 3578.6 µmol·min/L and 1329.09 µmol·min/L
- Tmax [3]: 6 h and 1 h
- Cmax (D10.1 SQ 12.2 mg/kg, individual mice M1, M2, M3, read-out: Cmax): 2400 nM and 4880 nM and 5150 nM
- AUC0-∞ [4]: 3585.94 µmol·min/L and 2148.41 µmol·min/L
- Cl/F [4]: 5.97e-05 L/min and 9.96e-05 L/min
- T1/2 [4]: 4.3302 h
- AUC0-∞ (D10.1 SQ 12.2 mg/kg, mean): 2867.17 µmol·min/L
- Half-life T1/2 (D10.1 SQ 12.2 mg/kg, mean): 3.7563 ± 0.8117 h
- AUC(0-t) (D10.1 SQ 12.2 mg/kg, mean n=3): 1879.54 µmol·min/L
- clearance (female, Balb/C, mouse, plasma, iv, […], D10.1 IV […], individual mice M1, M2, M3, read-out: CLP): 3.46 mL/min/kg
- half-life (female, Balb/C, mouse, plasma, iv, […], D10.1 IV […], individual mice M1, M2, M3, read-out: T1/2): 1.21 h
- Vd (female, Balb/C, mouse, plasma, iv, […], D10.1 IV […], individual mice M1, M2, M3, read-out: VSS): 0.32 L/kg
- Vd (female, Balb/C, mouse, plasma, iv, […], D10.1 IV […], individual mice M1, M2, M3, read-out: VZ): 0.36 L/kg
- half-life (female, Balb/C, mouse, plasma, iv, […], D10.1 IV […], mean n=3, read-out: Half-life T1/2): 1.12 ± 0.113 h
- clearance (female, Balb/C, mouse, plasma, iv, […], D10.1 IV […], mean n=3, read-out: Plasma clearance CLP): 3.26 ± 0.37 mL/min/kg
- Vd (female, Balb/C, mouse, plasma, iv, […], D10.1 IV […], mean n=3, read-out: Volume of distribution @ steady state VSS): 0.25 ± 0.08 L/kg
- Vd (female, Balb/C, mouse, plasma, iv, […], D10.1 IV […], mean n=3, read-out: Volume of distribution during elimination phase VZ): 0.32 ± 0.07 L/kg
- level at time molar at 0.25 h (female, Balb/C, mouse, plasma, po, 12.2 mg/kg, D10.1 PO 12.2 mg/kg, 15 min, individual mice M1, M2, M3, read-out: Plasma level): 2220 nM
- level at time molar at 2 h (female, Balb/C, mouse, plasma, po, 12.2 mg/kg, D10.1 PO 12.2 mg/kg, 120 min, individual mice M1, M2, M3, read-out: Plasma level): 540 nM
- level at time molar at 4 h (female, Balb/C, mouse, plasma, po, 12.2 mg/kg, D10.1 PO 12.2 mg/kg, 240 min, individual mice M1, M2, M3): 130 nM
- level at time molar at 6 h (female, Balb/C, mouse, plasma, po, 12.2 mg/kg, D10.1 PO 12.2 mg/kg, 360 min, individual mice M1, M2, M3, read-out: Plasma level): 100 nM
- Cmax (female, Balb/C, mouse, plasma, po, 12.2 mg/kg, D10.1 PO 12.2 mg/kg, individual mice M1, M2, M3, read-out: Cmax): 2490 nM
- half-life (female, Balb/C, mouse, plasma, po, 12.2 mg/kg, D10.1 PO 12.2 mg/kg, individual mice M1, M2, M3, read-out: T1/2): 0.831 h
- Tmax (female, Balb/C, mouse, plasma, po, 12.2 mg/kg, D10.1 PO 12.2 mg/kg, individual mice M1, M2, M3, read-out: Tmax (converted)): 0.5 h
- half-life (female, Balb/C, mouse, plasma, po, 12.2 mg/kg, D10.1 PO 12.2 mg/kg, mean n=3, read-out: Half-life T1/2): 1 ± 0.156 h
- Cmax (female, Balb/C, mouse, plasma, po, 12.2 mg/kg, D10.1 PO 12.2 mg/kg, mean n=3, read-out: Max concentration Cmax): 2920 ± 630 nM
- Tmax (female, Balb/C, mouse, plasma, po, 12.2 mg/kg, D10.1 PO 12.2 mg/kg, mean n=3, read-out: Time of max concentration Tmax (converted)): 0.5 h
- bioavailability (female, Balb/C, mouse, plasma, po, 12.2 mg/kg, read-out: Oral bioavailability F): 7.48 ± 1.79%
- level at time molar at 6 h (female, Balb/C, mouse, plasma, sc, 12.2 mg/kg, D10.1 SQ 12.2 mg/kg, 360 min, individual mice M1, M3 (M2 ND), read-out: Plasma level): 2400 nM
- level at time molar at 24 h (female, Balb/C, mouse, plasma, sc, 12.2 mg/kg, D10.1 SQ 12.2 mg/kg, 1440 min, individual mice M1, M2, M3, read-out: Plasma level): 30 nM
- AUC(0-inf) (female, Balb/C, mouse, plasma, sc, D10.1 SQ 12.2 mg/kg, mean): 47.8 µM·h
- AUC(0-t) (female, Balb/C, mouse, plasma, sc, D10.1 SQ 12.2 mg/kg, mean n=3, read-out: AUC0-t (converted)): 1880 µmol·min/L
- half-life (female, Balb/C, mouse, plasma, subcutaneous, 12.2 mg/kg, D10.1 SQ 12.2 mg/kg, individual mice M2, M3 (M1 NA), read-out: T1/2): 3.18 h
- AUC(0-inf) (female, Balb/C, mouse, plasma, D10.1 PO 12.2 mg/kg, mean n=3): 4.67 µM·h
- AUC(0-t) (female, Balb/C, mouse, plasma, D10.1 PO 12.2 mg/kg, mean n=3, read-out: AUC0-t (converted)): 270 µmol·min/L
- CL/F (female, Balb/C, mouse, plasma, D10.1 PO 12.2 mg/kg, mean n=3, read-out: Apparent clearance Cl/F): 0.785 mL/min
- half-life (mouse, in vivo, sc, 12.2 mg/kg, D10.1 after SQ administration, read-out: plasma half-life T1/2 (converted)): 3.75 h
